How the values were obtained:
[1] = test system: Trypanosoma brucei brucei; assay: GSK_TCAKS: pIC50 Trypanosoma brucei viability assay using luminiscence. Assay plates (1536-well) were prepared. T. brucei cultures were harvested and counted in a CASY cell counter. A parasite suspension was prepared at a final concentration of 5 * 10^4 cells/mL in complete HMI9 medium and 6uL was dispensed to all wells containing compounds using a Multidrop Combi dispenser. 6uL of HMI9 media with 0.4% DMSO were dispensed to control columns. Plates were incubated for 24 h at 37C, 5% CO2 then tempered for 10 min at room temperature. ATP content was quantified by adding 4 uL of CellTiter-Glo Reagent (Promega) according to the manufacturer's instructions. Luminescence was measured using a ViewLux.; assay type: functional, organism-based; details: Lister 427, CASY
[2] = test system: Trypanosoma cruzi; assay: (§1) GSK_TCAKS: pIC50 H2C9 Imaging: H9c2 Host Cardiomyocytes. […] Cells were then washed once with PBS before infection. T. cruzi trypomastigotes, collected at days 5 to 8 after infection from LLC-MK2 parasite infected cultures, were allowed to swim out for 4h at 37C from a centrifuged pellet (2,500 rpm/10 min/room temperature). Trypomastigotes were then collected and counted in a CASY Cell Counter. Trypomastigotes, in supplemented DMEM, were added to H9c2 cultures in a multiplicity of infection of 1 and incubated for 18 h. Cells were washed once with PBS before incubation of the infected H9c2 monolayer with trypsin (Life-Technologies) to detach cells from the flask. Cells were counted in a CASY Cell Counter using a 150 um capillary and their density set at 5 * 10^4 cells per mL in supplemented assay DMEM. Infected H9c2 were dispensed into 384-well poly-lysine coated assay plates at 50uL per well using a Multidrop Combi dispenser. After seeding them, the plates were incubated at 37C, 5% CO2 for 72h. Cultures were then fixed and stained by addition of 50 uL of a solution containing 8% formaldehyde and 4 uM DRAQ5 DNA dye (BioStatus, UK) per well. […] Five images were collected per well for reliable statistical analysis. Automated image analysis was performed with a script developed on Acapella High Content Imaging and Analysis Software (PerkinElmer). Output: Number of H9c2 Host Cardiomyocytes nuclei to determine drug-related cytotoxicity.; assay type: functional, organism-based, Rattus norvegicus; details: H9c2, 4 h
[3] = GSK_TCAKS: pIC50 HepG2 human cell line viability assay using luminiscence. […] Seeding density was checked to ensure that new mono-layers were not more than 50% confluent at the time of harvesting. Cell suspension was added to 500 mL of the same medium at a final density of 1.2 * 10^5 cells/mL. This cell suspension was dispensed (25 uL, 3000 cells per well) into 384-well clear-bottom plates using a Multidrop Combi dispenser. Prior to addition of the cell suspension, the screening compounds (250 nL) were pre-dispensed into the plates with an Echo liquid handler. Plates were incubated for 48 h at 37C, 5% CO2. After incubation, plates equilibrated at room temperature for 30 min before proceeding to develop the luminescent signal. The signal developer, CellTiter-Glo Reagent, was allowed to equilibrate at room temperature for 30 min and added to the plates (25uL per well) using a Multidrop Combi dispenser. Plates were left for 10 min at room temperature for stabilization and then read using a ViewLux.; assay type: toxicity, cell-based
[4] = test system: Trypanosoma cruzi; assay: as §1, with “Trypanosoma cruzi” for “H2C9”, “Amastigotes/Cell.” for “H9c2 Host Cardiomyocytes.”, “number” for “Number”, “amastigotes per cell as infection level measurement.” for “H9c2 Host Cardiomyocytes nuclei to determine drug-related cytotoxicity.”; assay type: functional, organism-based, Rattus norvegicus; details: H9c2, 4 h
[5] = test system: Leishmania donovani; assay: (§2) GSK_TCAKS: pIC50 Leishmania donovani Imaging: THP-1 Host Macrophages. Assay plates (384-well) were prepared by adding 250nL of compound to each well. For single shot assay, the final compound concentration was 5 uM. […] Automated image analysis was performed with a script developed on Acapella High Content Imaging and Analysis Software (PerkinElmer). Output: THP-1 cell count were reported for each well.; assay type: functional, organism-based, Homo sapiens
[6] = molecular target: Sterol 14-alpha demethylase (Trypanosoma cruzi (strain CL Brener), UniProt Q7Z1V1); assay: GSK_TCAKS: pIC50 CYP51 from Trypanosoma cruzi.; assay type: functional
Sterol 14-alpha demethylase, sequence (Q7Z1V1 whole entry): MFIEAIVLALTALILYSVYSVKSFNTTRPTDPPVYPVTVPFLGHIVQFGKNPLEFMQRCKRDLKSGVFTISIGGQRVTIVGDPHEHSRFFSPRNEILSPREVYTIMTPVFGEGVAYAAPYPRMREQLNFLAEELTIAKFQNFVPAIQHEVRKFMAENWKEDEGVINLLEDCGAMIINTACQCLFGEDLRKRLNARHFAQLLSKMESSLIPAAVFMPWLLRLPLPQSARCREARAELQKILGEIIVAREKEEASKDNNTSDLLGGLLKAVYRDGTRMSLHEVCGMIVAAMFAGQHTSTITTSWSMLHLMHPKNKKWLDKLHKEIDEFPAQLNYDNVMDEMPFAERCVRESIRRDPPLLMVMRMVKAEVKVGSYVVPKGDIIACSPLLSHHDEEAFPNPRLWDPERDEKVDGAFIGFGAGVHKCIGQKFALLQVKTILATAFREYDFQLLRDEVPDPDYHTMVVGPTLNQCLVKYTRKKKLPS

[7] = test system: NIH3T3; assay: GSK_TCAKS: pIC50 NIH 3T3 cell line viability assay using luminiscence. Tissue culture surface treated assay plates (1536-well) were used. […] The 100% cells survival control was determined exposing the host-cells to a 0.5% DMSO concentration, whereas the 100% toxicity control was achieved by seeding the cells in presence of Amphotericin B at 50uM. Plates were incubated for four days at 37C, 5% CO2. The assay readout was developed by addition of 5uL of CellTiter-Glo Reagent following the manufacturer's instructions. Luminiscence was measured using a ViewLux.; assay type: functional, cell-based; details: Mus musculus, NIH3T3, 96 h
[8] = test system: Trypanosoma brucei brucei; assay: GSK_TCAKS: pIC50 Trypanosoma brucei viability assay using fluorescence intensity. Assay plates (1536-well) were prepared by dispensing 25nL of compound solution per well using an Echo acoustic dispenser (Labcyte).; assay type: functional, organism-based; details: Lister 427, 2 h
[9] = test system: Trypanosoma cruzi; assay: GSK_TCAKS: pIC50 Trypanosoma cruzi viability assay using beta-GAL activity. This assay was run at single shot at 5uM compound concentration per well. The biological reagents consisted of NIH-3T3 host cells and trypomastigotes parasitic cells; both cell types were set to a 3.3 * 10^5 cells/mL dilution in assay DMEM by means of a CASY cell counter device using a 60um capillary. 6 uL of the mixture were dispensed per well (about 1 * 10^3 host-cells and 1 * 10^3 parasites) with a Multidrop Combi dispenser. […] In all wells, the percentage of DMSO never exceeded 0.5%. Plates incubated for four days at 37C, 5% CO2. The substrate used for the assay fluorescence intensity (FLINT) readout was resorufin-beta-D-galactopiranoside (Sigma-Aldrich) at 5uM per well. It was diluted in PBS supplemented with the soft detergent Igepal (Fluka).; assay type: functional, organism-based, Mus musculus; details: Tulahuen, NIH3T3
[10] = test system: Trypanosoma cruzi; assay: as §1, with “Trypanosoma cruzi” for “H2C9”, “Infected Cells.” for “H9c2 Host Cardiomyocytes.”, “percentage” for “Number”, “infected cells per well as a second infection marker.” for “H9c2 Host Cardiomyocytes nuclei to determine drug-related cytotoxicity.”; assay type: functional, organism-based, Rattus norvegicus; details: H9c2, 4 h
[11] = test system: Leishmania donovani; assay: as §2, with “Infected” for “THP-1 Host”, “Percent of infected macrophage cells” for “THP-1 cell count”; assay type: functional, organism-based, Homo sapiens; details: THP-1
[12] = test system: Leishmania donovani; assay: GSK_TCAKS: pIC50 Leishmania donovani viability assay using fluorescence intensity. Assay plates (1536-well) were prepared by adding 30nL per well of compound. For single shot assay, the final compound concentration was 5uM. […] Briefly, eGFP LdBOB axenic amastigotes were harvested, fixed and counted in a CASY cell counter (Roche-Applied Science). A final concentration of 1.5 * 10^5 cells per well were prepared in amastigote media containing 500 U/mL penicillin/streptomycin (Invitrogen) and 6uL was dispensed to each experimental well using a Multidrop Combi dispenser (Thermo Scientific). 6uL of assay media was dispensed to control columns used as reference for 100% compound response. Following incubation for 72 h at 37C, 5% CO2, 2 uL of resazurin was added to each well at a final concentration of 0.5 mM in phosphate buffered saline (PBS) with IGEPAL (Sigma-Aldrich), 0.05% (v/v).; assay type: functional, organism-based
[13] = test system: Leishmania donovani; assay: as §2, with “Amastigotes/Macrophages.” for “THP-1 Host Macrophages.”, “Average number of amastigotes per macrophage” for “THP-1”, “cell” for “cell count”; assay type: functional, organism-based, Homo sapiens; details: THP-1

In the case of `Cc1ccc(CNC2CCN(C[C@@H]3Cn4c(=O)ccc5ccc(=O)n3c54)CC2)cc1F`, the IC50 [1] is reported as 2 µM, the IC50 [2] is reported as > 50.1 µM and the IC50 at 48 h [3] is reported as > 100 µM. The IC50 [4] was 1 µM, the IC50 [5] was > 50.1 µM and the IC50 [6] was > 100 µM. The IC50 [7] was 15.8 µM, the IC50 [8] was 1.58 µM and the IC50 [9] was 1.26 µM. The IC50 [10] was 1.26 µM, the IC50 [11] was > 50.1 µM and the IC50 [12] was > 50.1 µM. For the same compound, the IC50 [13] was > 50.1 µM.
In the case of `O=C(N1CCc2ccccc2CC1)C1(C(=O)N2CCC(n3c(=O)[nH]c4ncccc43)CC2)CC1`, the IC50 [1] is reported as > 39.8 µM, the IC50 [2] is reported as > 50.1 µM and the IC50 at 48 h [3] is reported as > 100 µM. The IC50 [4] was 0.631 µM, the IC50 [5] was > 50.1 µM and the IC50 [6] was 0.316 µM. For the same compound, the IC50 [7] was 39.8 µM, the IC50 [8] was > 39.8 µM and the IC50 [9] was 0.631 µM. The IC50 [10] was 0.794 µM, the IC50 [11] was > 50.1 µM and the IC50 [12] was > 50.1 µM. For the same compound, the IC50 [13] was > 50.1 µM.
With `COc1ccc2ncc(=O)n(CCN3CCOC(CNCc4ccc(C(F)(F)F)cc4F)C3)c2n1` (stereo unspecified) the IC50 [1] was 2.51 µM, the IC50 [2] was > 50.1 µM and the IC50 at 48 h [3] was > 100 µM. For the same compound, the IC50 [4] was 0.631 µM, the IC50 [5] was > 50.1 µM and the IC50 [6] was 10 µM. The IC50 [7] was 3.98 µM, the IC50 [8] was 0.631 µM and the IC50 [9] was 0.398 µM. For the same compound, the IC50 [10] was 1.58 µM, the IC50 [11] was > 50.1 µM and the IC50 [12] was 39.8 µM. For the same compound, the IC50 [13] was > 50.1 µM.
For `CS(=O)(=O)c1cccc(CNC(=O)c2cncc(N3CCN(c4ccc(F)cc4)CC3)c2)c1`, the IC50 [1] was > 39.8 µM, the IC50 [2] was > 50.1 µM and the IC50 at 48 h [3] was > 100 µM. The IC50 [4] was 0.251 µM, the IC50 [5] was > 50.1 µM and the IC50 [6] was 12.6 µM. It also gave an IC50 [7] of 25.1 µM, an IC50 [8] of 31.6 µM and an IC50 [9] of 0.631 µM. The IC50 [10] was 0.398 µM, the IC50 [11] was > 50.1 µM and the IC50 [12] was > 50.1 µM. The IC50 [13] was > 50.1 µM.
With `O[C@H]1CC[C@H](Nc2nccc(-c3sc(C4CCOCC4)nc3-c3ccc(F)c(F)c3)n2)CC1` the IC50 [1] was 3.98 µM, the IC50 [2] was 31.6 µM and the IC50 at 48 h [3] was 25.1 µM. For the same compound, the IC50 [4] was 0.2 µM, the IC50 [5] was 20 µM and the IC50 [6] was > 100 µM. The IC50 [7] was 39.8 µM, the IC50 [8] was 2 µM and the IC50 [9] was 0.316 µM. The IC50 [10] was 0.316 µM, the IC50 [11] was 5.01 µM and the IC50 [12] was 3.16 µM. The IC50 [13] was 2.51 µM.
In the case of `O=c1oc2ccccc2n1C1CCN(Cc2ccccc2-c2cccnc2)CC1`, the IC50 [1] is reported as > 39.8 µM, the IC50 [2] is reported as > 50.1 µM and the IC50 at 48 h [3] is reported as > 100 µM. For the same compound, the IC50 [4] was 0.398 µM, the IC50 [5] was 12.6 µM and the IC50 [6] was 0.1 µM. For the same compound, the IC50 [7] was 15.8 µM, the IC50 [8] was 39.8 µM and the IC50 [9] was 0.501 µM. For the same compound, the IC50 [10] was 0.316 µM, the IC50 [11] was > 50.1 µM and the IC50 [12] was > 50.1 µM. It also gave an IC50 [13] of 6.31 µM.
With `Cc1c(C(C)NC(=O)Nc2cccc(Cl)c2)sc2ncnn12` (stereo unspecified) the IC50 [1] was > 39.8 µM, the IC50 [2] was > 50.1 µM and the IC50 at 48 h [3] was > 100 µM. For the same compound, the IC50 [4] was 0.158 µM, the IC50 [5] was > 50.1 µM and the IC50 [6] was 0.126 µM. The IC50 [7] was > 50.1 µM, the IC50 [8] was 20 µM and the IC50 [9] was 0.141 µM. The IC50 [10] was 0.2 µM, the IC50 [11] was > 50.1 µM and the IC50 [12] was 2 µM. For the same compound, the IC50 [13] was 2 µM.

From ChEMBL document CHEMBL3430912, “GSK Tres Cantos Anti-Kinetoplastid Screening (TCAKS) Data”
